Assay results: article PMC4979060, “Structural basis of metallo-β-lactamase, serine-β-lactamase and penicillin-binding protein inhibition by cyclic boronates” (Nature Communications, 2016)

How the values were obtained:
CphA = target: T1, CphA (Aeromonas hydrophila, UniProt P26918); test: B2 MBL inhibition assay (meropenem substrate), CphA; format: biochemical, Aeromonas hydrophilia; settings: for IC50: 10 min preincubation
T1 construct: made in house; host or cells: E. coli
Procedure: (§1) Kinetic and inhibition analyses, and ^19F NMR studies[10] against bacterial β-lactamases were performed as described. The FC-5 cephalosporin[9] was used as substrate for BcII, VIM-2, IMP-1, NDM-1, SPM-1, TEM-1 and OXA-10, meropenem[28] for CphA and nitrocefin[34] for PBP 3 and PBP 5.
(§2) In brief IC50 values were determined by preincubation of the appropriate amount of enzyme with the cyclic boronates in the assay buffers for 10 min at room temperature prior to the initiation of the assay by the addition of the appropriate substrate. The enzyme concentrations used are the following: 1 nM BcII, 100 nM VIM-2, 10 nM IMP-1, 10 nM NDM-1, 1 nM SPM-1, 1 nM TEM-1, 1 nM OXA-10, 2.5 nM CphA, 4 μM PBP 3 and 5 μM PBP 5; note that the final concentrations are stated. The assay buffers used are the following: 50 mM HEPES, pH 7.2 supplemented with 1 μg BSA, 1 μg ZnSO4 and 0.01% Triton for BcII, VIM-2, IMP-1, NDM-1 and SPM-1, 15 mM MES, pH 6.5 for CphA, 50 mM HEPES, pH 7.2 supplemented with 200 mM NaCl and 0.01% Triton 100 for TEM-1, 100 mM sodium phosphate, pH 7.2 supplemented with 50 mM NaHCO3 and 0.01% Triton 100 for OXA-10 and 50 mM HEPES, pH 7.2 supplemented with 200 mM NaCl and 0.01% Triton 100 for PBP 3 and PBP 5. The amount of substrates used is the following: 5 μM for BcII, VIM-2, IMP-1, NDM-1 and SPM-1, 10 μM for TEM-1 and OXA-10, 125 μM for CphA and 25 μM for PBP 3 and PBP 5; note that the final concentrations are stated.
(§3) The experiments were performed using a PHERAstar FS microplate reader (BMG Labtech) at room temperature (24–25 °C). All enzymes and inhibitors were prepared in the specific assay buffer. The kinetic values in this study are the means from at least three independent measurements; at least nine different concentrations of the inhibitor were used to determine the kinetic parameters (IC50). The IC50 values were determined using the software package Graph Prism 5.

TEM-1 = target: T2, TEM-1 (Escherichia coli, UniProt P62593); test: Fluorogenic β-lactamase inhibition assay (FC-5 substrate), TEM-1; format: biochemical; settings: for IC50: 10 min preincubation
T2 construct: made in house; host or cells: E. coli
T2 sequence (P62593 24-286 limits assumed): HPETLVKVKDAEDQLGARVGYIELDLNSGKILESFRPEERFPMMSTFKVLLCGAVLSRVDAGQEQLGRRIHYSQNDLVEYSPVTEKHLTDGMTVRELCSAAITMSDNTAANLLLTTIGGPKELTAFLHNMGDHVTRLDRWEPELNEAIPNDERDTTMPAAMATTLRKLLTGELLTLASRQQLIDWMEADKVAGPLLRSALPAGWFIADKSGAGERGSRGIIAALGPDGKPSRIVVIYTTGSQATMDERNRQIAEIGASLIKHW
Procedure: as §1, §2, §3

BcII = target: T3, BcII (Bacillus cereus, UniProt P04190); test: Fluorogenic β-lactamase inhibition assay (FC-5 substrate), BcII; format: biochemical; settings: for IC50: 10 min preincubation
T3 construct: made in house; host or cells: E. coli
T3 sequence (P04190 31-257): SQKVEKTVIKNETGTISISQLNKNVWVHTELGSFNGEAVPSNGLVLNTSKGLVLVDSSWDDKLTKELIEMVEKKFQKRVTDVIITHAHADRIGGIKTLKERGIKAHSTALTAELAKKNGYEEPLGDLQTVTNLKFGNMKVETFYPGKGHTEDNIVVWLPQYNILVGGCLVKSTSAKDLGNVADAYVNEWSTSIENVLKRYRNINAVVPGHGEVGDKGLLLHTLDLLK
Procedure: as §1, §2, §3

SPM-1 = SPM-1 (Pseudomonas aeruginosa, UniProt Q8G9Q0); test: Fluorogenic β-lactamase inhibition assay (FC-5 substrate), SPM-1; format: biochemical; settings: for IC50: 10 min preincubation
SPM-1, sequence (Q8G9Q0 entry or part of it): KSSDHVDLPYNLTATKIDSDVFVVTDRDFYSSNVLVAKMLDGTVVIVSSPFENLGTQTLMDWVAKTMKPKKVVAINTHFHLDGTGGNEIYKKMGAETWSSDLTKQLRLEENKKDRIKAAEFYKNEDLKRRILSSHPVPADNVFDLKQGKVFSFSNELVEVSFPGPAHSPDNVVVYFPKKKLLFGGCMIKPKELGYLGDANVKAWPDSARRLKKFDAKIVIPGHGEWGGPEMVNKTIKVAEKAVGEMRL
Procedure: as §1, §2, §3

NDM-1 = target: T4, NDM-1 (Klebsiella pneumoniae, UniProt C7C422); test: Fluorogenic β-lactamase inhibition assay (FC-5 substrate), NDM-1; format: biochemical; settings: for IC50: 10 min preincubation
T4 construct: made in house; host or cells: E. coli
T4 sequence (C7C422 29-270, looked up, species assumed): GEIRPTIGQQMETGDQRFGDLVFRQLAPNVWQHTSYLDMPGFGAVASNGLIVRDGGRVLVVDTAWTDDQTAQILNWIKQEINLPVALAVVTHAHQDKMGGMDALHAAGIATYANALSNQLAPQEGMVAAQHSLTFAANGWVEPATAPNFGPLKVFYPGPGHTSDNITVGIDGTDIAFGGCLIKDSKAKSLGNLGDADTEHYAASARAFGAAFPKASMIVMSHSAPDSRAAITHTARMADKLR
Procedure: as §1, §2, §3

VIM-2 = target: T5, VIM-2 (Escherichia coli, UniProt Q5U7L7); test: Fluorogenic β-lactamase inhibition assay (FC-5 substrate), VIM-2; format: biochemical; settings: for IC50: 10 min preincubation
T5 construct: made in house; host or cells: E. coli
Procedure: as §1, §2, §3

OXA-10 = target: T6, OXA-10 (Pseudomonas aeruginosa, UniProt P14489); test: Fluorogenic β-lactamase inhibition assay (FC-5 substrate), OXA-10; format: biochemical; settings: for IC50: 10 min preincubation
T6 construct: made in house; host or cells: E. coli
T6 sequence (P14489 20-266, species assumed): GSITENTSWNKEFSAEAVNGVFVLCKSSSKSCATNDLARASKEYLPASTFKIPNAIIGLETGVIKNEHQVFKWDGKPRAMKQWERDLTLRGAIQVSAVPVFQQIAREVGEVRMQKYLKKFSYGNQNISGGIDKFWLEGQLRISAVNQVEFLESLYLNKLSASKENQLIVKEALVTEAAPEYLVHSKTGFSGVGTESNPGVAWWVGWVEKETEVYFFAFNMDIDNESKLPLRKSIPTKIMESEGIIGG
Procedure: as §1, §2, §3

PBP 3 = target: T7, PBP 3 (Pseudomonas aeruginosa, UniProt G3XD46); test: PBP inhibition assay (nitrocefin substrate), PBP 3; format: biochemical; settings: NI = no inhibition at 100 μM, read-out: IC50 (μM)/pIC50 (converted)
T7 construct: made in house; host or cells: E. coli
T7 sequence (G3XD46 whole entry): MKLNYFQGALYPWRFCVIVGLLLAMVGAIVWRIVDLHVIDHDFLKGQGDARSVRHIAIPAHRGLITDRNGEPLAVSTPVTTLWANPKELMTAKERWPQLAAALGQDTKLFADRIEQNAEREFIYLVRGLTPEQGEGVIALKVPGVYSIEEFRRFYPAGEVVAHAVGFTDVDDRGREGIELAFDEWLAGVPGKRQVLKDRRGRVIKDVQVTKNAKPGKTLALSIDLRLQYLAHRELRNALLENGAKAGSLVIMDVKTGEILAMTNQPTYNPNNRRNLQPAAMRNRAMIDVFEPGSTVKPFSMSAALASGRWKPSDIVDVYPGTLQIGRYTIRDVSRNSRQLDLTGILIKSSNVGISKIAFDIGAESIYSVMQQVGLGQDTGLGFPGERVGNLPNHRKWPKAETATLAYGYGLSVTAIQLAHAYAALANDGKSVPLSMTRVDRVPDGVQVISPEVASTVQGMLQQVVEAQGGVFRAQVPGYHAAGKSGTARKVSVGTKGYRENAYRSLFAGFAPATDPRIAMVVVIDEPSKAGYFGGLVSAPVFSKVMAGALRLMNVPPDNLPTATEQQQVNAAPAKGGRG
Procedure: as §1, §2, §3

IMP-1 = target: T8, IMP-1 (Serratia marcescens, UniProt P52699); test: Fluorogenic β-lactamase inhibition assay (FC-5 substrate), IMP-1; format: biochemical
T8 construct: made in house; host or cells: E. coli
T8 sequence (P52699 19-246, looked up, species assumed): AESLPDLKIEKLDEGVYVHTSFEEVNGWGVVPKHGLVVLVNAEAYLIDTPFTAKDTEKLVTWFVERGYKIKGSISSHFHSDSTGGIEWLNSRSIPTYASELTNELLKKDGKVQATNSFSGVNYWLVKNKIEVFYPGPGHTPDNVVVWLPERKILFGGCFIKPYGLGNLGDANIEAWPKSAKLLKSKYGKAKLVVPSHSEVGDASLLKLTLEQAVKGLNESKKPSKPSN
Procedure: as §1
In brief IC50 values were determined by preincubation of the appropriate amount of enzyme with the cyclic boronates in the assay buffers for 10 min at room temperature prior to the initiation of the assay by the addition of the appropriate substrate. The enzyme concentrations used are the following: 1 nM BcII, 100 nM VIM-2, 10 nM IMP-1, 10 nM NDM-1, 1 nM SPM-1, 1 nM TEM-1, 1 nM OXA-10, 2.5 nM CphA, 4 μM PBP 3 and 5 μM PBP 5; note that the final concentrations are stated. […]
The experiments were performed using a PHERAstar FS microplate reader (BMG Labtech) at room temperature (24–25 °C). […] The IC50 values were determined using the software package Graph Prism 5.

T1 sequence (P26918 28-254): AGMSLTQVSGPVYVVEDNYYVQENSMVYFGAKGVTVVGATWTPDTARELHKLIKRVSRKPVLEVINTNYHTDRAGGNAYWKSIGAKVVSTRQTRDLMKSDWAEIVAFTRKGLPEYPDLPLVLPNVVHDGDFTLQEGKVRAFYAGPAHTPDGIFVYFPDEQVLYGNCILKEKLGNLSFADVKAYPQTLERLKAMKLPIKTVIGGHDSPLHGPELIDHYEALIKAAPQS

Row | SMILES | pIC50 (CphA) | IC50 (CphA) [nM] | pIC50 (TEM-1) | IC50 (TEM-1) [nM] | pIC50 (BcII) | IC50 (BcII) [nM] | pIC50 (SPM-1) | IC50 (SPM-1) [nM] | pIC50 (NDM-1) | IC50 (NDM-1) [nM] | pIC50 (VIM-2) | IC50 (VIM-2) [nM] | pIC50 (OXA-10) | IC50 (OXA-10) [nM] | IC50 (PBP 3) [µM] | pIC50 (IMP-1)
1 | NCC1CCC(C(=O)N[C@H]2Cc3cccc(C(=O)O)c3O[B-]2(O)O)CC1 (stereo partly drawn) [compound 3] | 4.68 | 20800 | 8.5 | 2 | 6.0 | 960 | 4.8 | 16000 | 6.1 | 687 | 7.9 | 11 | 6.0 | 830 | > 100 | 
2 | O=C(N[C@H]1Cc2cccc(C(=O)O)c2O[B-]1(O)O)c1ccc(CN2CCNCC2)cc1 [compound 4] | > 4 | > 100000 | 9.4 | 0.3 | 6.2 | 520 | 4.8 | 13900 |  | 40 | 7.8 | 14 | 5.6 | 2260 | > 100 | 4.7
3 | NCCNCc1ccc(C(=O)N[C@H]2Cc3cccc(C(=O)O)c3O[B-]2(O)O)cc1 [compound 5] | > 4 | > 100000 | 8.1 | 6 | 5.9 | 1140 | 4.4 | 36300 |  |  |  | 2 | 4.9 | 12700 | > 100 | 
